Measured values reported in patent publication US7160919B2, “C7 lactyloxy-substituted taxanes” (Florida State University Research Foundation, Inc., priority 2004, dated 2007).

How the values were obtained:
HCT116 cells = assay: In vitro cytotoxicity, cell colony formation assay (HCT116); format: cell-based; details: colonies counted after 7 days, concentration producing 50% inhibition of colony formation
Experimental: (§1) Four hundred cells (HCT116) were plated in 60 mm Petri dishes containing 2.7 mL of medium (modified McCoy's 5a medium containing 10% fetal bovine serum and 100 units/mL penicillin and 100 µg/mL streptomycin). The cells were incubated in a CO2 incubator at 37° C. for 5 h for attachment to the bottom of Petri dishes. The compound identified in Example 1 was made up fresh in medium at ten times the final concentration, and then 0.3 mL of this stock solution was added to the 2.7 mL of medium in the dish. The cells were then incubated with drugs for 72 h at 37° C. At the end of incubation the drug-containing media were decanted, the dishes were rinsed with 4 mL of Hank's Balance Salt Solution (HBSS), 5 mL of fresh medium was added, and the dishes were returned to the incubator for colony formation. The cell colonies were counted using a colony counter after incubation for 7 days. Cell survival was calculated and the values of IC50 (the drug concentration producing 50% inhibition of colony formation) were determined for each tested compound.
(§2) The assays described above were repeated using the compound identified in Example 2. The results of these assays are tabulated below in comparison with data for paclitaxel and docetaxel.

VM46 colon cell line = assay: In vitro cytotoxicity, cell colony formation assay (VM46); format: cell-based; details: 72 h drug incubation, colonies counted after 7 days, concentration producing 50% inhibition of colony formation
Experimental: as §1
An identical assessment was carried out using the VM46 colon cell line.
as §2

[1] = Homo sapiens, HCT-116, 72 h drug incubation

Row | Structure (SMILES) | IC50 (HCT116 cells; [1]) | IC50 (VM46 colon cell line) | melting point | IC50 (HCT116 cells; 72 h drug incubation)
1 | CC(=O)O[C@@]12CO[C@@H]1C[C@H](OC(=O)[C@@H](C)O)[C@@]1(C)C(=O)[C@H](O)C3=C(C)[C@@H](OC(=O)[C@H](O)[C@@H](NC(=O)OC(C)(C)C)c4ccco4)C[C@@](O)([C@@H](OC(=O)c4ccccc4)C12)C3(C)C (stereo partly drawn) [7-((R)-(+)-2-hydroxyloxypropionyl)-2-furyl-Docetaxel] | 0.05 nM | 4.22 nM |  | 
2 | CC(=O)O[C@@]12CO[C@@H]1C[C@H](OC(=O)[C@H](C)O)[C@@]1(C)C(=O)[C@H](O)C3=C(C)[C@@H](OC(=O)[C@H](O)[C@@H](NC(=O)OC(C)(C)C)c4ccco4)C[C@@](O)([C@@H](OC(=O)c4ccccc4)C12)C3(C)C (stereo partly drawn) [7-((S)-(−)-2-hydroxyloxypropionyl)-2-furyl-Docetaxel] | 0.17 nM | 2.5 nM | 174 to 176 °C | 
3 | CC(=O)O[C@@]12CO[C@@H]1C[C@H](O)[C@@]1(C)C(=O)[C@H](O)C3=C(C)[C@@H](OC(=O)[C@H](O)[C@@H](NC(=O)OC(C)(C)C)c4ccccc4)C[C@@](O)([C@@H](OC(=O)c4ccccc4)[C@H]21)C3(C)C [Docetaxel, docetaxel, reference compound] |  | 6.7 nM |  | 0.6 nM
4 | CC(=O)O[C@H]1C(=O)[C@@]2(C)[C@H]([C@H](OC(=O)c3ccccc3)[C@]3(O)C[C@H](OC(=O)[C@H](O)[C@@H](NC(=O)c4ccccc4)c4ccccc4)C(C)=C1C3(C)C)[C@]1(OC(C)=O)CO[C@@H]1C[C@@H]2O [Paclitaxel, paclitaxel, reference compound] | 2.1 nM | 20 nM |  | 
